SMILES strings stand for the structures.

One experiment has as its system RSV ATCC VR-1540 (A2). Nature of the experiment: microbe, parasite or virus in culture. Format: cell-based. The settings on record: human respiratory syncytial virus, HEp-2, 96 h; Hep2 cells, incubated for 4 days, CPE detected with XTT assay (absorbance 450 nm); read-out: EC50 (nmol/L) against RSV A2 strain. On the technique in general: Formazan colour is commonly taken as a measure of viable cells.
On to `CN1CCCS(=O)(=O)Nc2ccc(Cl)cc2C(=O)N2CCCCC2c2cc3nc(N4CCC(N)C4)cc1n3n2` [Example 312, (23aS)-18-[(3S)-3-aminopyrrolidin-1-yl]-8-chloro-16-methyl-1,3,4,13,14,15,16,23a-octahydro-2H,6H-23,20-(metheno)-12h-pyrido[2,1-k]pyrimido[6,1-g][2,1,6,8,9,12]benzothiapentaazacyclopentadecine-6,12,12(11H)-trione], for which the EC50 is 4.05 nmol/L. Consider `[2H]C([2H])([2H])c1ccc2c(c1)C(=O)N1CCCC[C@H]1c1cc3nc(C4CC4)cc(n3n1)N(C)CCNC(=O)CO2` [Example 100, (18aS)-13-cyclopropyl-11-methyl-2-trideuteriomethyl-8,9,10,11,19,20,21,22-octahydro-18aH,24H-18,15-(metheno)pyrido[2,1-l]pyrimido[6,1-h][1,4,7,9,10,13]benzoxapentaazacyclohexadecine-7,24(6H)-dione], for which the EC50 was 0.328 nmol/L.

The next experiment deals with F protein D486N mutant strain of RSV A2 strain.
Assay: not given
The experiment is classed as cell-based, respiratory syncytial virus (RSV). The settings on record: Hep2 cells, incubated for 4 days, CPE detected with XTT assay (absorbance 450 nm); read-out: EC50 (nmol/L) against F protein D486N mutant strain of RSV A2 strain.
As to `CN1CCCS(=O)(=O)Nc2ccc(Cl)cc2C(=O)N2CCCCC2c2cc3nc(N4CCC(N)C4)cc1n3n2` [Example 312, (23aS)-18-[(3S)-3-aminopyrrolidin-1-yl]-8-chloro-16-methyl-1,3,4,13,14,15,16,23a-octahydro-2H,6H-23,20-(metheno)-12h-pyrido[2,1-k]pyrimido[6,1-g][2,1,6,8,9,12]benzothiapentaazacyclopentadecine-6,12,12(11H)-trione], the EC50 was determined as 31.8 nmol/L. Same read-out and setting: the result for `[2H]C([2H])([2H])c1ccc2c(c1)C(=O)N1CCCC[C@H]1c1cc3nc(C4CC4)cc(n3n1)N(C)CCNC(=O)CO2` [Example 100, (18aS)-13-cyclopropyl-11-methyl-2-trideuteriomethyl-8,9,10,11,19,20,21,22-octahydro-18aH,24H-18,15-(metheno)pyrido[2,1-l]pyrimido[6,1-h][1,4,7,9,10,13]benzoxapentaazacyclohexadecine-7,24(6H)-dione] reads 0.678 nmol/L; that for `CN1CCNC(=O)COc2ccc(Cl)cc2C(=O)N2CCCCC2c2cc3nc(C4CC(O)C4)cc1n3n2` [Example 112, (18aS)-2-chloro-13-(trans-3-hydroxycyclobutyl)-11-methyl-8,9,10,11,19,20,21,22-octahydro-18aH,24H-18,15-(metheno)pyrido[2,1-l]pyrimido[6,1-h][1,4,7,9,10,13]benzoxapentaazacyclohexadecine-7,24(6H)-dione], 0.704 nmol/L.

For the compound `CN1CCOCCOc2ccc(Cl)cc2C(=O)N2CCCC[C@H]2c2cc3nc(N4CC(N)C4)cc1n3n2` [Example 298, (18aS)-13-(3-aminoazetidin-1-yl)-2-chloro-11-methyl-6,7,10,11,19,20,21,22-octahydro-9H,18aH,24H-18,15-(metheno)pyrido[2,1-l]pyrimido[6,1-h][1,4,7,9,10,13]benzodioxatetraazacyclohexadecin-24-one], the EC50 came out at 3.13 nmol/L. `CN1CCNC(=O)COc2ccc(Cl)cc2C(=O)N2CCCC[C@H]2c2cc3nc(N4CC(O)C4)cc1n3n2` [Example 39]: the EC50 came out at 0.867 nmol/L. The same measure, in the same setting: the value for `Cc1ccc2c(c1)C(=O)N1CCCCC1c1cc3nc(C4CC4)cc(n3n1)C(C)CCNC(=O)CO2` (single isomer, unassigned) [Example 126a] was 2.05 nmol/L; that for `Cc1ccc2c(c1)C(=O)N1CCCC[C@H]1c1cc3nc(N4CC(O)C4)cc(n3n1)N(C)CCNCCO2` [Example 171, (18aS)-13-(3-hydroxyazetidin-1-yl)-2,11-dimethyl-6,7,8,9,10,11,19,20,21,22-decahydro-18aH,24H-18,15-(metheno)pyrido[2,1-l]pyrimido[6,1-h][1,4,7,9,10,13]benzoxapentaazacyclohexadecin-24-one] was 4.19 nmol/L. Turning to `CC1CCNC(=O)COc2ccc(Cl)cc2C(=O)N2CCCCC2c2cc3nc(C4CC4)cc1n3n2` (single isomer, unassigned) [Example 124a], the EC50 is 7.23 nmol/L. As for `CN1CC(=O)NCCOc2ccc(F)cc2C(=O)N2CCCC[C@H]2c2cc3nc(N4CC(N)C4)cc1n3n2` [Example 37, (18aS)-13-(3-aminoazetidin-1-yl)-2-fluoro-1-methyl-7,8,10,11,19,20,21,22-octahydro-8aH,24H-18,15-(metheno)pyrido[2,1-l]pyrimido[6,1-h][1,4,7,9,10,13]benzoxapentaazacyclohexadecine-9,24(6H)-dione], the EC50 is 10.1 nmol/L.

Regarding `Cc1ccc2c(c1)C(=O)N1CCCCC1c1cc3nc(N4CC(O)C4)cc(n3n1)N(C)CC(C(F)(F)F)NCCO2` [Example 348, (18aS)-13-(3-hydroxyazetidin-1-yl)-2,11-dimethyl-9-(trifluoromethyl)-6,7,8,9,10,11,19,20,21,22-decahydro-18aH,24H-18,15-(metheno)pyrido[2,1-l]pyrimido[6,1-h][1,4,7,9,10,13]benzoxapentaazacyclohexadecin-24-one], the EC50 is 8.2 nmol/L.

The values are drawn from US20230069963A1, “PYRAZOLO[1,5-A]PYRIMIDINE MACROCYCLIC COMPOUND” (priority 2018, published 2023).
